According to US9006171B2, “Angiotensin converting enzyme inhibitory peptide” (Kikkoman Corporation, priority 2009, dated 2015):
pIC50: −log10 of the molar value. Non-standard residues stand in square brackets, D forms with d. Residues, ends and D or L forms follow the SMILES beside them. pGlu = O=C1CC[C@@H](C(=O)O)N1

The molecules below were run against T1, ACE (rabbit lung-derived) (Oryctolagus cuniculus, UniProt P12822) (assay: ACE inhibitory activity (modified method of Yamamoto et al., Hippuryl-His-Leu substrate)). Details: pH 8.3, 37° C., 30 minutes, chemically synthesized peptides.
T1 construct: 0.3 U/ml of ACE (rabbit lung-derived, manufactured by SIGMA); purchased SIGMA; host or cells: rabbit lung (tissue-derived)
T1 sequence (P12822 34-1310): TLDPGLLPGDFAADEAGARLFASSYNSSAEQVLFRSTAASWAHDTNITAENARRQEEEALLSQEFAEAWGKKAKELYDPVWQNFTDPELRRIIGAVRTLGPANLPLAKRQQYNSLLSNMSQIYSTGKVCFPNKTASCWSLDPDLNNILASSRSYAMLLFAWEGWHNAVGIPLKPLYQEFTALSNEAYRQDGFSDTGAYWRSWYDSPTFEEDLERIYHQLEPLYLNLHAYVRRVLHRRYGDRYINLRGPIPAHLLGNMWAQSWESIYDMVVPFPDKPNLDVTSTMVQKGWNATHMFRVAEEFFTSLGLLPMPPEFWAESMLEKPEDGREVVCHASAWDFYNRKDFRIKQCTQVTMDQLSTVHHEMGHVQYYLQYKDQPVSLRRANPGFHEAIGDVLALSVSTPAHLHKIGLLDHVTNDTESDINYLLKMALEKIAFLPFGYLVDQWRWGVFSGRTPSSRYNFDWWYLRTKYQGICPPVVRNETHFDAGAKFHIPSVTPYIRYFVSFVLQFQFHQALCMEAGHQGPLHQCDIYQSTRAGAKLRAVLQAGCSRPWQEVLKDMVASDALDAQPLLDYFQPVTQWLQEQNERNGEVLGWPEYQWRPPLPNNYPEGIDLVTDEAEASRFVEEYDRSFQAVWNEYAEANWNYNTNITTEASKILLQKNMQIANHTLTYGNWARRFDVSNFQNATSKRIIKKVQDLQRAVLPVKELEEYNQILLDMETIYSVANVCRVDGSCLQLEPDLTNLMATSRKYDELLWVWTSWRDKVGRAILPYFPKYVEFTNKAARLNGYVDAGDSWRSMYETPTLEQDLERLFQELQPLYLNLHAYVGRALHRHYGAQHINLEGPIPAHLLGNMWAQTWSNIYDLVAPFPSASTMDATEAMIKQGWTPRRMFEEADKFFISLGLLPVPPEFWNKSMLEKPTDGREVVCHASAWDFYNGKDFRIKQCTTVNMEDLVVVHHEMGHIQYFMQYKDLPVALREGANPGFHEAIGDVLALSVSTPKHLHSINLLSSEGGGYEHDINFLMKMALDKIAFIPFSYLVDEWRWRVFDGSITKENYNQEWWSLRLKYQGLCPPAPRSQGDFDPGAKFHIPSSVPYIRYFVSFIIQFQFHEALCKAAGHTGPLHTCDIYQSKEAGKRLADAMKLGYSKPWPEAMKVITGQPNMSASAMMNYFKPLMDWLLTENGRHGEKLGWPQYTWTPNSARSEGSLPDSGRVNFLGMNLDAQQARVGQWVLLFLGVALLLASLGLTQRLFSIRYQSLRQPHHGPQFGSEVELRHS
Assay type: biochemical
Description: ACE inhibitory activity of the peptides obtained by the aforementioned synthesis method was measured. As the measuring method, it was carried out by a method in which the method of Yamamoto et al. (Setsuko Yamamoto et al., Journal of the Japan Society of Chest Diseases, 1980, 18, p. 297-302) was partially modified. Namely, 140 μl of sample solution, 10 μl of enzyme solution (0.3 U/ml of ACE (rabbit lung-derived, manufactured by SIGMA) and 50 mM borate buffer (pH 8.3) were added to 100 μl of a substrate solution (12.5 mM Hippuryl-His-Leu (manufactured by SIGMA), 100 mM borate buffer pH 8.3, 1M NaCl), and the reaction was carried out at 37° C. for 30 minutes. Subsequently, the reaction was stopped by adding 250 μl of 1 N hydrochloric acid and, after stirring by adding 1.5 ml of ethyl acetate and subsequent centrifugation, 1 ml of the ethyl acetate layer was concentrated and dried by centrifugal concentration followed by dissolution in 1 ml of ultrapure water to measure the absorbance at 228 nm. The ACE inhibitory ratio is represented by the following formula. ACE inhibitory ratio (%)={1−(ODs−ODsb)/(ODc−ODcb)}×100
In this connection, ODs is the absorbance when the reaction was carried out by adding the enzyme solution to a sample as described above; ODsb is the absorbance when ultrapure water was added instead of the enzyme solution; ODc is the absorbance when ultrapure water was added instead of the sample solution; and ODcb is the absorbance when ultrapure water was added instead of the enzyme solution and sample solution. Additionally, the concentration of a sample which gives 50% of the enzyme activity inhibitory ratio on this reaction system is regarded as the IC50 value.

In order of rising pIC50:
1. O=C(O)[C@H](Cc1c[nH]c2ccccc12)NC(=O)[C@@H]1CCCN1 [Pro-Trp] (H-Pro-Trp-OH; N-terminus and C-terminus assumed)  3.73
2. O=C1CC[C@@H](C(=O)N2CCC[C@H]2C(=O)O)N1 [pyroGlu-Pro] ([pGlu]-Pro-OH; C-terminus assumed)  3.97
3. C[C@@H](O)[C@H](NC(=O)[C@@H](N)Cc1ccc(O)cc1)C(=O)O [Tyr-Thr] (H-Tyr-Thr-OH)  4.46
4. NC(=O)C[C@H](N)C(=O)N[C@@H](Cc1c[nH]c2ccccc12)C(=O)O [Asn-Trp] (H-Asn-Trp-OH; N-terminus and C-terminus assumed)  4.60
